Source: ChEMBL document CHEMBL4196165, “Catenulobactins A and B, Heterocyclic Peptides from Culturing Catenuloplanes sp. with a Mycolic Acid-Containing Bacterium” (J Nat Prod, 2018)
Activity calls are given as the source filed them. No cut-off for these calls is given here.

Assays:
[1] = Metal chelating activity assessed as compound-Fe3+ complex formation after 1 hr by LC/MS analysis
[2] = tested on: P388; experiment: Cytotoxicity against mouse P388 cells up to 100 uM after 4 days by MTT assay; type: functional, cell-based
[3] = tested on: P388; experiment: Cytotoxicity against mouse P388 cells after 4 days by MTT assay; type: functional, cell-based; conditions: P388, 96 h
[4] = Stability of the compound in physiological conditions at pH > 7; type: physicochemical

C[C@@H]1ON(CCC[C@@H](NC(=O)[C@H]2N=C(c3ccccc3O)O[C@@H]2C)C(=O)O)C(=O)[C@H]1NC(=O)c1ccccc1O
Activity [1]: inactive
Activity [2]: inactive

C[C@H]1OC(c2ccccc2O)=N[C@@H]1C(=O)N[C@H](CCCN(O)C(=O)[C@H]1N=C(c2ccccc2O)O[C@@H]1C)C(=O)O
Activity [1]: Active
IC50 [3]: 22.4 µM
Stability [4]: Unstable
